Experimental data reported in PubChem BioAssay (NCI).
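Test compounds were applied to cells in 96-well plates for 48 hours at 5 doses. Here, GI50 denotes the concentration required for 50% inhibition of growth. TGI denotes the concentration required for complete inhibition of growth.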

Legend:
Assay in all cases: NCI-60 cell line screen, 48 h
ACHN renal = tested on: ACHN renal
COLO 205 colon = tested on: COLO 205 colon
MDA-MB-435 = tested on: MDA-MB-435
MOLT-4 leukemia = tested on: MOLT-4 leukemia
RPMI-8226 leukemia = tested on: RPMI-8226 leukemia
SF-268 CNS = tested on: SF-268 CNS
SF-295 CNS = tested on: SF-295 CNS
U251 CNS = tested on: U251 CNS
UACC-62 melanoma = tested on: UACC-62 melanoma
UO-31 renal = tested on: UO-31 renal

Work on `O=C(O)Cc1[nH]cnc1C(=O)O` yielded a TGI (ACHN renal) greater than 100 µM, a TGI (COLO 205 colon) greater than 100 µM and a TGI (MDA-MB-435) greater than 100 µM. For the same molecule, the TGI (MOLT-4 leukemia) was greater than 100 µM, the TGI (RPMI-8226 leukemia) was greater than 100 µM and the TGI (SF-268 CNS) was greater than 100 µM. For the same molecule, the TGI (SF-295 CNS) was greater than 100 µM, the TGI (U251 CNS) was greater than 100 µM and the TGI (UACC-62 melanoma) was greater than 100 µM. For the same molecule, the TGI (UO-31 renal) was greater than 100 µM.
`COc1ccc(/C=C/[N+](=O)[O-])cc1` was tested, and the TGI (ACHN renal) was 32.4 µM, the TGI (COLO 205 colon) was greater than 100 µM and the TGI (MDA-MB-435) was 4.21 µM. The TGI (MOLT-4 leukemia) was 12.8 µM, the TGI (SF-268 CNS) was 8.11 µM and the TGI (SF-295 CNS) was 7.7 µM. The TGI (U251 CNS) was 19.1 µM, the TGI (UACC-62 melanoma) was 39.7 µM and the TGI (UO-31 renal) was 41.3 µM.
Work on `CSc1sc(=S)sc1SC` yielded a TGI (COLO 205 colon) greater than 100 µM, a TGI (MOLT-4 leukemia) greater than 100 µM and a TGI (RPMI-8226 leukemia) greater than 100 µM. The TGI (SF-268 CNS) was greater than 100 µM, the TGI (SF-295 CNS) was greater than 100 µM and the TGI (U251 CNS) was greater than 100 µM. The TGI (UACC-62 melanoma) was greater than 100 µM and the TGI (UO-31 renal) was greater than 100 µM.
Molecule `COc1ccc(/C(Cl)=C(\C=O)c2ccc(Cl)c(Cl)c2)cc1OC` has a TGI (ACHN renal) of 18.2 µM, a TGI (COLO 205 colon) of 33.7 µM and a TGI (MOLT-4 leukemia) of 5.76 µM. For the same molecule, the TGI (RPMI-8226 leukemia) was 5.5 µM, the TGI (SF-268 CNS) was 18.5 µM and the TGI (SF-295 CNS) was 15.9 µM. For the same molecule, the TGI (U251 CNS) was 15 µM, the TGI (UACC-62 melanoma) was 24.2 µM and the TGI (UO-31 renal) was 20.7 µM.
`COc1cc2c3c(c4cc(OC)c(OC)cc4c2cc1OC)[C@H](O)[C@@H]1CCCN1C3` gave a TGI (ACHN renal) of 0.3 µM, a TGI (COLO 205 colon) of 0.154 µM and a TGI (MDA-MB-435) of 2.86 µM. The TGI (MOLT-4 leukemia) was greater than 100 µM, the TGI (RPMI-8226 leukemia) was 0.44 µM and the TGI (SF-295 CNS) was 1.64 µM. For the same molecule, the TGI (U251 CNS) was 2.5 µM and the TGI (UACC-62 melanoma) was 0.395 µM.
Molecule `C[C@H](CCC1=NCCN1)[C@H]1CC[C@H]2[C@@H]3CC[C@@H]4C[C@H](O)CC[C@]4(C)[C@H]3CC[C@]12C` has a TGI (ACHN renal) of 24.2 µM, a TGI (COLO 205 colon) of 3.18 µM and a TGI (MDA-MB-435) of 22 µM. For the same molecule, the TGI (MOLT-4 leukemia) was 8.79 µM, the TGI (RPMI-8226 leukemia) was 13.4 µM and the TGI (SF-268 CNS) was 34.3 µM. It also gave a TGI (SF-295 CNS) of 10.4 µM, a TGI (U251 CNS) greater than 45.2 µM and a TGI (UACC-62 melanoma) of 4.26 µM. It also gave a TGI (UO-31 renal) of 31.4 µM.
`S=C1NN=C2C(=C3CCCC4C5CCCCC5N2C34)N1` (stereo not drawn) showed a TGI (ACHN renal) greater than 100 µM, a TGI (COLO 205 colon) greater than 100 µM and a TGI (MOLT-4 leukemia) greater than 100 µM. It also gave a TGI (RPMI-8226 leukemia) greater than 100 µM, a TGI (SF-268 CNS) greater than 100 µM and a TGI (SF-295 CNS) greater than 100 µM. For the same molecule, the TGI (UO-31 renal) was greater than 100 µM.
Work on `COc1cc2c3c(n(C4CCNCC4)c(=O)c2cc1OC)-c1cc2c(cc1C3=O)OCO2` yielded a GI50 (COLO 205 colon) of 0.986 µM, a TGI (COLO 205 colon) of 2.33 µM and a GI50 (MDA-MB-435) of 1.19 µM. It also gave a TGI (MDA-MB-435) of 2.6 µM, a GI50 (RPMI-8226 leukemia) of 0.773 µM and a TGI (RPMI-8226 leukemia) of 3.68 µM. For the same molecule, the GI50 (U251 CNS) was 0.279 µM and the TGI (U251 CNS) was 2.01 µM.
Work on `CCCCCCCCCCCCCCCCOCCCOP(=O)(O)C1CCCN(O)C1=O` (stereo not drawn) yielded a GI50 (ACHN renal) of 3.2 µM, a TGI (ACHN renal) of 14.2 µM and a GI50 (COLO 205 colon) of 0.548 µM. It also gave a TGI (COLO 205 colon) of 13.3 µM, a GI50 (MDA-MB-435) of 3.13 µM and a TGI (MDA-MB-435) greater than 100 µM. It also gave a GI50 (MOLT-4 leukemia) of 1.6 µM, a TGI (MOLT-4 leukemia) of 19.7 µM and a GI50 (RPMI-8226 leukemia) of 0.936 µM. It also gave a TGI (RPMI-8226 leukemia) of 29.4 µM, a GI50 (SF-268 CNS) of 1.81 µM and a TGI (SF-268 CNS) of 11.7 µM. For the same molecule, the GI50 (SF-295 CNS) was 2.44 µM, the TGI (SF-295 CNS) was 11.3 µM and the GI50 (U251 CNS) was 0.489 µM. The TGI (U251 CNS) was 15.3 µM, the GI50 (UACC-62 melanoma) was 1.29 µM and the TGI (UACC-62 melanoma) was 7.18 µM. For the same molecule, the GI50 (UO-31 renal) was 2.77 µM and the TGI (UO-31 renal) was 13.7 µM.
`NC(=O)c1cc(C2OC(CO)C(O)C2O)nn1-c1ccc([N+](=O)[O-])cc1` (stereo not drawn) showed a TGI (ACHN renal) greater than 100 µM, a TGI (COLO 205 colon) greater than 100 µM and a TGI (MOLT-4 leukemia) greater than 100 µM. The TGI (RPMI-8226 leukemia) was greater than 100 µM, the TGI (SF-268 CNS) was greater than 100 µM and the TGI (SF-295 CNS) was greater than 100 µM. For the same molecule, the TGI (U251 CNS) was greater than 100 µM, the TGI (UACC-62 melanoma) was greater than 100 µM and the TGI (UO-31 renal) was greater than 100 µM.
